The numbers were not newly measured in patent publication US20110028639A1, “ROOM TEMPERATURE VULCANIZABLE POLYMERS” (HONEYWELL INTERNATIONAL, INC., priority 2007, published 2011), which cites them from elsewhere.

The subject of the series is males rats.

With `CC(C)=NO` [acetone oxime], the tumors in rats entry is reported as “cause tumors”.
